Results reported in US8063065B2, “Azaindazole compounds as CCR1 receptor antagonists” (Boehringer Ingelheim International GmbH, priority 2008, dated 2011).
pIC50: −log10 of the molar value.

Experiments:
CCR1 [1] = target: T1, CCR1 (Homo sapiens, UniProt P32246); test: Method A: calcium flux in CCR1 transfected cells (Fluo-4 NW, FLIPR TETRA), block of the CCR1/MIP-1α interaction; assay type: cell-based; conditions: Method A: Fluo-4 NW, MIP-1 alpha at EC80
T1 sequence (P32246 1-355): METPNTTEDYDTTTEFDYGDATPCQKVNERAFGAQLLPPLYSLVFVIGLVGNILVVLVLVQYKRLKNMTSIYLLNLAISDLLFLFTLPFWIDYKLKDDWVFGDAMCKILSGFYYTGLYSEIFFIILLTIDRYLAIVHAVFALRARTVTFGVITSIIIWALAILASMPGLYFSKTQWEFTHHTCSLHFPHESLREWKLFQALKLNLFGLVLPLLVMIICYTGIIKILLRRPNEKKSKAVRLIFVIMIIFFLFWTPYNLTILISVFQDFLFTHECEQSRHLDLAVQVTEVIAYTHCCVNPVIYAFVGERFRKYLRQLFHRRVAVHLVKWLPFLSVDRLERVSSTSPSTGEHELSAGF
How it was run: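 Non-adherent cells stably expressing recombinant CCR1 and G-alpha-16, Fluo-4 NW-loaded 1 h at room temperature, preincubated 1 h with compound (top 3,000 nM, 4-fold, 10 doses; 1% DMSO) in HBSS/20 mM HEPES pH 7.4. MIP-1 alpha added at EC80; intracellular calcium flux recorded on FLIPR TETRA.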

CCR1 [2] = target: T1, CCR1; test: Method B: calcium flux in CCR1 transfected cells (Calcium 4 dye, […] FDSS6000), block of the CCR1/MIP-1α interaction; assay type: cell-based; conditions: Method B: Calcium 4 dye, MIP-1alpha at EC80
How it was run: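 Calcium flux on an FDSS6000 was triggered by MIP-1α at its EC80 in stably CCR1/G-alpha-16-expressing non-adherent cells. Before this, Calcium 4-loaded cells were preincubated with compound in HBSS, 20 mM HEPES pH 7.4, 1% DMSO: 30 min at 37 C plus 30 min at room temperature. Ten 4-fold doses began at 3,000 nM, with ±MIP-1α DMSO wells as controls.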

SMILES: CC[C@H](NC(=O)c1cncc2c1cnn2-c1ccc(F)cc1)c1cncc(S(=O)(=O)CC)c1 [1-(4-Fluorophenyl)-1H-pyrazolo[3,4-c]pyridine-4-carboxylic acid [(S)-1-(5-ethanesulfonyl-pyridin-3-yl)-propyl]-amide]
- pIC50 (CCR1 [1]): 9.40
- pIC50 (CCR1 [2]): 9.52

SMILES: C[C@@H](O)CNS(=O)(=O)c1ccc(CNC(=O)c2cncc3c2cnn3-c2ccc(F)cc2)cc1 [1-(4-Fluorophenyl)-1H-pyrazolo[3,4-c]pyridine-4-carboxylic acid 4-((R)-2-hydroxy-propylsulfamoyl)-benzylamide]
- pIC50 (CCR1 [1]): 8.70
- pIC50 (CCR1 [2]): 9.00

SMILES: CC[C@H](NC(=O)c1cncc2c1cnn2-c1ccc(F)cc1)c1cncc(S(=O)(=O)CCC(=O)O)c1 [3-[5-((S)-1-{[1-(4-Fluorophenyl)-1H-pyrazolo[3,4-c]pyridine-4-carbonyl]-amino}-propyl)-pyridine-3-sulfonyl]-propionic acid]
- pIC50 (CCR1 [1]): 7.46
- pIC50 (CCR1 [2]): 7.85

SMILES: C[C@H](O)CNS(=O)(=O)c1ccc(CNC(=O)c2cncc3c2cnn3-c2ccc(F)cc2)cc1 [1-(4-Fluorophenyl)-1H-pyrazolo[3,4-c]pyridine-4-carboxylic acid 4-((S)-2-hydroxy-propylsulfamoyl)-benzylamide]
- pIC50 (CCR1 [1]): 9.00
- pIC50 (CCR1 [2]): 9.10

SMILES: CC[C@H](NC(=O)c1cncc2c1cnn2-c1ccc(F)cc1)c1cccnc1 [1-(4-Fluorophenyl)-1H-pyrazolo[3,4-c]pyridine-4-carboxylic acid ((S)-1-pyridin-3-yl-propyl)-amide]
- pIC50 (CCR1 [1]): 7.82
- pIC50 (CCR1 [2]): 8.10

SMILES: C=CC[C@H](NC(=O)c1cncc2c1cnn2-c1ccc(F)cc1)c1ccnc(S(=O)(=O)CC)c1 [1-(4-Fluorophenyl)-1H-pyrazolo[3,4-c]pyridine-4-carboxylic acid [(S)-1-(2-ethanesulfonyl-pyridin-4-yl)-but-3-enyl]-amide]
- pIC50 (CCR1 [1]): 9.22
- pIC50 (CCR1 [2]): 9.40

SMILES: CC[C@H](NC(=O)c1cncc2c1cnn2-c1ccc(F)cc1)c1cncc(S(C)(=O)=O)c1 [1-(4-Fluorophenyl)-1H-pyrazolo[3,4-c]pyridine-4-carboxylic acid [(S)-1-(5-methanesulfonyl-pyridin-3-yl)-propyl]-amide]
- pIC50 (CCR1 [1]): 9.30
- pIC50 (CCR1 [2]): 9.70
